Test results from US8916599B2, “1H-benz imidazole-5-carboxamides as anti-inflammatory agents” (Orexo AB, priority 2008, dated 2014).

Each compound was assayed against T1, recombinant human mPGES-1 (Homo sapiens, UniProt O14684) (assay: mPGES-1 inhibition test (microsomes, PGH2 substrate, HTRF detection of PGE2)). Conditions: inhibition of mPGES-1 at 10 μM.
T1 construct: made in house; host or cells: Rosetta E. coli (microsomal/membrane fraction)
T1 sequence (O14684 1-152): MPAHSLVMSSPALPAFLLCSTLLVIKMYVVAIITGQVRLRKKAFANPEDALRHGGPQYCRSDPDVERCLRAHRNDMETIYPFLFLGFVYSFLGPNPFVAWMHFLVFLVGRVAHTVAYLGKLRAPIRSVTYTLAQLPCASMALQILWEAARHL
Assay type: biochemical
Procedure: Microsomes from Rosetta E. coli bacteria expressing recombinant human mPGES-1 is dissolved in 0.1 M KPi pH 7.4 buffer containing 2.5 mM GSH. 50 μl of the enzyme is subsequently dispensed in a 384-well plate. 0.5 μl of the inhibitor dissolved in DMSO at is thereafter added to each well and incubated for 25 minutes at room temperature. Subsequently, 2 μl of PGH2 dissolved in an appropriate solvent is added to each well and after one minute the acidified stop solution containing FeCl2 is added. 4 μl of the total volume is transferred to a separate plate and diluted 750-fold in two separate steps before HTRF detection of PGE2.
The HTRf detection is performed by the use of a commercially available kit from CisBio essentially according to the manufacturer's protocol. Briefly, 10 μl of the diluted sample is transferred to a white 384-well plate. 5 μl of d2 and 5 μl Eu3+-Cryptate labeled anti-PGE2 is added to each well containing samples by the use of a Multidrop. The plate is covered with a plastic self-adhesive film, centrifuged at 1200 rpm for 1 minute and subsequently stored at +4° C. over night.
After over night incubation the fluorescence is measured by the use of an appropriate microplate reader. The fluorescence of europium cryptate, and d2 are measured using the following excitation and emission wavelength, europium cryptate: λmax^ex=307 nm, λmax^em=620 nm and d2: λmax^ex=620 nm, λmax^em=665 nm), respectively. The extent of the specific FRET is measured as a ratio of the emission intensity at 665 nm vs. that at 620 nm. A standard curve using synthetic PGE2 is used to quantify the amount of PGE2 in unknown samples.

SMILES	inhibition at 10 µM [%]
O=C(NCCc1cccnc1)c1ccc2[nH]c(Nc3c(Cl)cccc3Cl)nc2c1 [Example 232, 2-(2,6-Dichloro-phenylamino)-1H-benzimidazole-5-carboxylic acid (2-pyridin-3-yl-ethyl)-amide]	91
Cc1nc(NC(=O)c2cc3nc(Nc4c(Cl)cccc4Cl)[nH]c3cc2F)cc2c1CCCC2 [Example 138, 2-(2,6-Dichloro-phenylamino)-6-fluoro-1H-benzimidazole-5-carboxylic acid (1-methyl-5,6,7,8-tetrahydro-isoquinolin-3-yl)-amide]	100
Cn1c(Nc2c(Cl)cccc2Cl)nc2cc(C(=O)NC3CCC(C(F)(F)F)CC3)ccc21 (centres unmarked) [Example 256, 2-(2,6-Dichloro-phenylamino)-1-methyl-1H-benzimidazole-5-carboxylic acid (4-trifluoromethyl-cyclohexyl)-amide]	100
Cn1c(Nc2c(Cl)cccc2Cl)nc2cc(C(=O)NC3CCCCCC3)ccc21 [Example 238, 2-(2,6-Dichloro-phenylamino)-1-methyl-1H-benzimidazole-5-carboxylic acid cycloheptylamide]	100
O=C(NC1CCCC(O)C1)c1ccc2[nH]c(Nc3c(Cl)cccc3Cl)nc2c1 (centres unmarked) [Example 226, 2-(2,6-Dichloro-phenylamino)-1H-benzimidazole-5-carboxylic acid (3-hydroxy-cyclohexyl)-amide]	64
COCCn1c(Nc2c(Cl)cccc2Cl)nc2cc(C(=O)Nc3cccc(Cl)c3)ccc21 [Example 181, 2-(2,6-Dichloro-phenylamino)-1-(2-methoxy-ethyl)-1H-benzimidazole-5-carboxylic acid (3-chloro-phenyl)-amide]	100
O=C(Nc1cc(Br)ccn1)c1ccc2[nH]c(Nc3c(Cl)cccc3Cl)nc2c1 [Example 184, 2-(2,6-Dichloro-phenylamino)-1H-benzimidazole-5-carboxylic acid (4-bromo-pyridin-2-yl)-amide]	98
O=C(NC1CCc2ccccc2C1)c1cc2[nH]c(Nc3c(Cl)cccc3Cl)nc2cc1F (centres unmarked) [Example 150, 2-(2,6-Dichloro-phenylamino)-6-fluoro-3H-benzimidazole-5-carboxylic acid (1,2,3,4-tetrahydro-naphthalen-2-yl)-amide]	100

More lines, now with the values ahead:

inhibition at 10 µM [%]	SMILES
100	Cn1c(Nc2c(Cl)cccc2Cl)nc2cc(C(=O)NC3CCC4(CC3)CC4)c(F)cc21 [Example 419, 2-(2,6-Dichlorophenylamino)-6-fluoro-1-methyl-N-(spiro[2.5]octan-6-yl)-1H-benzimidazole-5-carboxamide]
85	CS(=O)(=O)CCn1c(Nc2c(Cl)cccc2Cl)nc2cc(C(=O)Nc3cc(Cl)ccn3)ccc21 [Example 269, 2-(2,6-Dichloro-phenylamino)-1-(2-methanesulfonyl-ethyl)-1H-benzimidazole-5-carboxylic acid (4-chloro-pyridin-2-yl)-amide]
100	CCCC[C@@H](C)NC(=O)c1cc2nc(Nc3c(Cl)cccc3Cl)[nH]c2cc1F [Example 457, (R)-2-(2,6-Dichlorophenylamino)-6-fluoro-N-(hexan-2-yl)-1H-benzimidazole-5-carboxamide]
100	Cc1cc2[nH]c(Nc3c(Cl)cccc3Cl)nc2cc1C(=O)NC1CCC(C(C)(C)C)CC1 (centres unmarked) [compound 148]
100	COc1cc2[nH]c(Nc3c(Cl)cccc3Cl)nc2cc1C(=O)N[C@H]1CC[C@H](C(F)(F)F)CC1 [Example 376, 2-(2,6-Dichlorophenylamino)-6-methoxy-N-((1r,4r)-4-trifluoromethyl-cyclohexyl)-1H-benzimidazole-5-carboxamide]
85	C#Cc1ccccc1Nc1nc2cc(C(=O)Nc3ccc(Br)cc3)ccc2n1C [Example 538, N-(4-Bromophenyl)-2-(2-ethynylphenylamino)-1-methyl-1H-benzimidazole-5-carboxamide]
